One series has as its system PC-3. The experiment in a line: 72 hr XTT cell viability assay, PC-3. It is filed as cell-based. To be noted: Homo sapiens; PC-3, 72 hr XTT; read-out: IC50 cell growth inhibition. The source says: (§1) The CyQUANT XTT Cell Viability Assay (Invitrogen) is a complete, optimized assay that generates a consistent colorimetric detection of viable mammalian cells. The assay kit consists of two reagents, XTT Reagent (2,3-bis-(2-methoxy-4-nitro-5-sulfophenyl)-2H-tetrazolium-5-carboxanilide) and Electron Coupling Reagent. XTT Reagent is used to assess cell viability as a function of cellular redox potential, and the electron coupling reagent improves the dynamic range of the assay. The kit was used as per the manufacturers' instructions.
For orientation: Tetrazolium dyes change colour on reduction, which living cells bring about.

The next series relates to LNCaP. The series is described as follows: 72 hr XTT cell viability assay, LNCaP. It is filed as cell-based. To be noted: Homo sapiens, read-out: IC50 cell growth inhibition.
Excerpt: as §1

The test system of a further series is MIA-PACA2 cells. The series is described as follows: MTS cell proliferation assay (CellTiter 96 AQueous One Solution), 96 hr. Particulars: Homo sapiens, MIA PaCa-2, 96 hr MTS assay. It is filed as cell-based. The source says: The CellTiter 96® AQueous One Solution Cell Proliferation Assay ([…]) is a colorimetric method for determining the number of viable cells in proliferation or cytotoxicity assays. The CellTiter 96® AQueous One Solution Reagent contains a novel tetrazolium compound [3-(4,5-dimethylthiazol-2-yl)-5-(3-carboxymethoxyphenyl)-2-(4-sulfophenyl)-2H-tetrazolium, inner salt; MTS] and an electron coupling reagent (phenazine ethosulfate; PES). PES has enhanced chemical stability, which allows it to be combined with MTS to form a stable solution. The MTS tetrazolium compound (Owen's reagent) is bioreduced by cells into a colored formazan product that is soluble in tissue culture medium. Assays are performed by adding a small amount of the CellTiter 96@ AQueous One Solution Reagent directly to culture wells, incubating for 1-4 hours and then recording the absorbance at 490 nm with a 96-well plate reader. The quantity of formazan product as measured by absorbance at 490 nm is directly proportional to the number of living cells in culture. The kit was used as per the manufacturers' instructions. After 96-hour incubation with each example compound in MIA-PACA2 cells, the cell proliferation of each sample was measured using the MTS Cell Titre 96 Aqueous One Solution Cell Proliferation Assay (Promega Ltd). The percentage of inhibition was calculated against the mean of the DMSO treated controls samples.

The nature of series [1]: Stability in saline at 0° C. It is filed as physicochemical.
The nature of series [2]: Mouse microsomal stability. The format is in vitro ADME. Particulars: mouse microsomes; read-out: t1/2 mouse microsomal stability.
Series [3] can be described thus: Plasma protein binding in vitro. It is filed as in vitro ADME.
Series [4] can be described thus: In vitro blood/plasma partitioning. The format is in vitro ADME. Particulars: blood and plasma.
A further series concerns GQ. The experiment in a line: FRET melting with GQ. The format is binding.
The test system of a further series is MIA-PACA2. The series is described as follows: 96 hr SRB cell growth inhibition, MIA-PACA2. To be noted: for IC50: Homo sapiens, MIA PaCa-2, MIA-PACA2, 96 hr SRB. The format is cell-based.
For another series, the system named is PANC-1. The series is described as follows: 96 hr SRB cell growth inhibition, PANC-1. It is filed as cell-based. Particulars: Homo sapiens; PANC-1, 96 hr SRB.
A further series concerns CAPAN-1. The series is described as follows: 96 hr SRB cell growth inhibition, CAPAN-1. It is filed as cell-based. Particulars: Homo sapiens; CAPAN-1, 96 hr SRB.
For another series, the system named is BX-PC3. The experiment in a line: 96 hr SRB cell growth inhibition, BX-PC3. The format is cell-based. Particulars: Homo sapiens, BXPC-3; BX-PC3, 96 hr SRB.
Another series concerns MIA-PACA2^gemR. The experiment in a line: 96 hr SRB cell growth inhibition, MIA-PACA2 gemR. The format is cell-based. To be noted: Homo sapiens, MIA PaCa-2.
A further series relates to MIA-PACA2 tumours. The experiment in a line: In vivo xenograft efficacy study, MIA-PACA2 model. Particulars: for complete regression in tumour volume at the end of the dosing period: 1 mg/kg IV, 28 days; for tumours not showing complete regression, versus vehicle control: minority of tumours in the group. As to the method:
Mice aged 5-7 weeks weighing approximately 25-32 g were implanted for the study and purchased from Charles River. The pancreatic tumour cell implantation procedure involved MIA-PACA2 cells (1×10^7 in Matrigel) being implanted subcutaneously using a 22-gauge needle onto the rear flank of the mice. Parameters evaluated include: tumour size and animal bodyweight. Tumour volume was measured three times weekly and bodyweight at least 3 times weekly. Allocation to treatment groups was done randomly when tumours reached approximately 50 mm^3 for animals in the efficacy study. […] Each group comprised 8 animals. All protocols used in this study were approved by the appropriate Animal Welfare and Ethical Review Board, and all procedures were carried out under the guidelines of the UK Animal (Scientific Procedures) Act 1986.
The data shown is mean±SD n=8 up to day 23 and n=4 to the end of the study. […] The starting tumour volumes were […]. Example 1 was active in both of the dosage regimens examined, 1× weekly and 2× weekly, both at a 1 mg/kg dose. Both had ⅝ complete regression in tumour volume at the end of the dosing period.

A further series concerns DU145. The series is described as follows: 72 hr XTT cell viability assay, DU145. The format is cell-based. To be noted: Homo sapiens, DU-145; DU145, 72 hr XTT; read-out: IC50 cell growth inhibition.
Excerpt: as §1

Another series deals with VCaP. The experiment in a line: 72 hr XTT cell viability assay, VCaP. To be noted: Homo sapiens, read-out: IC50 cell growth inhibition. The format is cell-based.
Excerpt: as §1

The subject of a further series is 22RV1. The series is described as follows: 72 hr XTT cell viability assay, 22RV1. It is filed as cell-based. Particulars: Homo sapiens; 22RV1, 72 hr XTT; read-out: IC50 cell growth inhibition.
Excerpt: as §1

Series [5] can be described thus: Aqueous solubility of salt. It is filed as physicochemical. To be noted: water; HCl/formate salt.

Where two headings read alike, the source gives them in different places. Where only a bound is given, the exact number is not on record here.

The term IC50 denotes the concentration that inhibits the measured activity by half. As a reminder, the fraction unbound is the share of the substance not bound to proteins or other matrix. A lower fraction unbound goes with little free substance. Broadly, the solubility is how much of the substance goes into solution per volume.

Turning to `C[C@]12CC[C@H](O)CC1=CC[C@@H]1[C@@H]2CC[C@]2(C)C(c3cccnc3)=CC[C@@H]12` [Abiraterone], the IC50 with PC-3 is 4820 nM; in the series with LNCaP it was 3860 nM.

As for `O=C1c2cc(-c3ccc(CN4CCCC4)cc3)c3c4c(cc(NCCN5CCCC5)c(c24)C(=O)N1CCCN1CCOCC1)C(=O)N(CCCN1CCOCC1)C3=O` [Example 1, 2,7-bis(3-morpholinopropyl)-4-((2-(pyrrolidin-1-yl)ethyl)amino)-9-(4-(pyrrolidin-1-ylmethyl)phenyl)benzo[lmn][3,8]phenanthroline-1,3,6,8(2H,7H)-tetraone], the IC50 with MIA-PACA2 cells (read-out: ABS IC50) stood at 0.056 nM; with MIA-PACA2 cells (read-out: Rel IC50) it was 0.035 nM; in the series with MIA-PACA2, 1.3 nM; with PANC-1, 1.4 nM; with CAPAN-1, 5.9 nM; with BX-PC3, 2.6 nM. Moreover, the IC50 in the series with MIA-PACA2^gemR is 3.8 nM; with PC-3 it was 3 nM; in the series with DU145, 32 nM; in the series with LNCaP, 247 nM; with VCaP it was 68 nM; with 22RV1 it was 90 nM. Further, the “Stability in saline at 0° C.” value in series [1] is on record as over 1 month. For the same molecule, the half-life in series [2] came to 4.47 h. The same molecule gave a fraction unbound in [3] of 0.339. For the same molecule, the blood plasma ratio in series [4] was 6.1. The “FRET ΔTm, ° C. with GQ” value in the series with GQ came to 23.1 °C. Also, the “greater cellular potency relative to C1” value with MIA-PACA2 (compared with C1) worked out at 10 fold. Moreover, the “complete regression in tumour volume at the end of the dosing period” value with MIA-PACA2 tumours (1× weekly) and with MIA-PACA2 tumours (2× weekly) was “⅝” each time. In the series on MIA-PACA2 tumours (28 days post-dosing), the “tumour regrowth in complete regression cohorts” value was “no regrowth seen after 28 days post-dosing”. Also, the “tumour growth and tumour size” value with MIA-PACA2 tumours (MIA-PACA2 xenograft, 28 days IV administration, followed by 28 days measurement) is “inhibited the growth of the pancreatic tumour and reduced the tumour's size considerably more than the comparative compound C1 or the known anti-cancer drug, Gemcitabine”. Moreover, the tolerability result in the series with MIA-PACA2 tumours (compound and dosing schedules, IV, mice) was “well-tolerated showing no sign of adverse effects”. Also, the “tumours not showing complete regression, versus vehicle control” value in the series with MIA-PACA2 tumours is on record as “reductions in tumour growth, leading to consistently smaller volumes than in the vehicle control groups”.

In the case of `O=C1c2cc(-c3ccc(CN4CCOCC4)cc3)c3c4c(cc(NCCN5CCCC5)c(c24)C(=O)N1CCCN1CCOCC1)C(=O)N(CCCN1CCOCC1)C3=O` [Example 2, 4-(4-(morpholinomethyl)phenyl)-2,7-bis(3-morpholinopropyl)-9-((2-(pyrrolidin-1-yl)ethyl)amino)benzo[lmn][3,8]phenanthroline-1,3,6,8(2H,7H)-tetraone], the IC50 with MIA-PACA2 cells (read-out: ABS IC50) is 0.292 nM; in the series on MIA-PACA2 cells (read-out: Rel IC50), 0.188 nM.

In the case of `O=C1c2cc(-c3cccc(CN4CCCC4)c3)c3c4c(cc(NCCN5CCCC5)c(c24)C(=O)N1CCCN1CCOCC1)C(=O)N(CCCN1CCOCC1)C3=O` [Example 3, 2,7-bis(3-morpholinopropyl)-4-((2-(pyrrolidin-1-yl)ethyl)amino)-9-(3-(pyrrolidin-1-ylmethyl)phenyl)benzo[lmn][3,8]phenanthroline-1,3,6,8(2H,7H)-tetraone], the values for the IC50 with MIA-PACA2 cells (read-out: ABS IC50) and with MIA-PACA2 cells (read-out: Rel IC50) were 0.284 nM and 0.282 nM, respectively.

Consider `O=C1c2cc(-c3ccc(CN4CCCCC4)cc3)c3c4c(cc(NCCN5CCCC5)c(c24)C(=O)N1CCCN1CCOCC1)C(=O)N(CCCN1CCOCC1)C3=O` [Example 4, 2,7-bis(3-morpholinopropyl)-4-(4-(piperidin-1-ylmethyl)phenyl)-9-((2-(pyrrolidin-1-yl)ethyl)amino)benzo[lmn][3,8]phenanthroline-1,3,6,8(2H,7H)-tetraone], for which the 50% inhibitory concentration (IC50) in the series with MIA-PACA2 cells (read-out: ABS IC50) came to 0.175 nM; with MIA-PACA2 cells (read-out: Rel IC50), 0.132 nM.

`CCN(CC)Cc1ccc(-c2cc3c4c(c(NCCN5CCCC5)cc5c4c2C(=O)N(CCCN2CCOCC2)C5=O)C(=O)N(CCCN2CCOCC2)C3=O)cc1` [Example 5, 4-(4-((diethylamino)methyl)phenyl)-2,7-bis(3-morpholinopropyl)-9-((2-(pyrrolidin-1-yl)ethyl)amino)benzo[lmn][3,8]phenanthroline-1,3,6,8(2H,7H)-tetraone]: the IC50 in the series on MIA-PACA2 cells (read-out: ABS IC50) amounted to 0.18 nM; in the series with MIA-PACA2 cells (read-out: Rel IC50), 0.239 nM.

Regarding `O=C1c2cc(-c3ccc(CNC4CCCC4)cc3)c3c4c(cc(NCCN5CCCC5)c(c24)C(=O)N1CCCN1CCOCC1)C(=O)N(CCCN1CCOCC1)C3=O` [Example 6, 4-(4-((cyclopentylamino)methyl)phenyl)-2,7-bis(3-morpholinopropyl)-9-((2-(pyrrolidin-1-yl)ethyl)amino)benzo[lmn][3,8]phenanthroline-1,3,6,8(2H,7H)-tetraone], the figures for the IC50 in the series with MIA-PACA2 cells (read-out: ABS IC50) and with MIA-PACA2 cells (read-out: Rel IC50) were 0.102 nM and 0.099 nM, respectively.

In the case of `O=C1c2cc(-c3ccc(CN4CCCCCC4)cc3)c3c4c(cc(NCCN5CCCC5)c(c24)C(=O)N1CCCN1CCOCC1)C(=O)N(CCCN1CCOCC1)C3=O` [Example 7, 4-(4-(azepan-1-ylmethyl)phenyl)-2,7-bis(3-morpholinopropyl)-9-((2-(pyrrolidin-1-yl)ethyl)amino)benzo[lmn][3,8]phenanthroline-1,3,6,8(2H,7H)-tetraone], the IC50 amounted to 0.182 nM in the series with MIA-PACA2 cells (read-out: ABS IC50) and 0.117 nM with MIA-PACA2 cells (read-out: Rel IC50).

With `CN1CCN(Cc2ccc(-c3cc4c5c(c(NCCN6CCCC6)cc6c5c3C(=O)N(CCCN3CCOCC3)C6=O)C(=O)N(CCCN3CCOCC3)C4=O)cc2)CC1` [Example 8], the results for the IC50 with MIA-PACA2 cells (read-out: ABS IC50) and in the series with MIA-PACA2 cells (read-out: Rel IC50) were 0.277 nM and 0.174 nM, respectively.

For `O=C1c2ccc3c4c(c(NCCN5CCCC5)cc(c24)C(=O)N1CCCN1CCOCC1)C(=O)N(CCCN1CCOCC1)C3=O` [Example C1, reference compound], in series [5], the solubility was over 5000 µg/mL. For the same molecule, in series [1], the “Stability in saline at 0° C.” value is over 1 month. Moreover, in series [2], the half-life was over 8 h. For the same molecule, in series [3], the fraction unbound was 0.65. In addition, the blood plasma ratio in series [4] stood at 10.9. The “FRET ΔTm, ° C. with GQ” value in the series on GQ stood at 17.6 °C. Moreover, the IC50 with MIA-PACA2 turned out to be 13 nM; in the series on PANC-1 it was 15.6 nM; in the series on CAPAN-1 it was 26.5 nM; with BX-PC3, 15.5 nM; in the series on MIA-PACA2^gemR it was 14.9 nM; with PC-3, 94 nM. The IC50 is 113 nM in the series with DU145, 394 nM with LNCaP, 135 nM in the series on VCaP and 90 nM with 22RV1. The “tumours not showing complete regression, versus vehicle control” value in the series on MIA-PACA2 tumours is recorded as “reductions in tumour growth, leading to consistently smaller volumes than in the vehicle control groups”.

The values are drawn from patent US11560380B2, “Substituted naphthalene diimides and their use” (UCL Business Ltd, priority 2019, dated 2023).
